Laboratory results reported in ChEMBL document CHEMBL1201862, “PubChem BioAssay data set” (2004).
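Dose response: 5 concentrations. Exposure: 48 h. Format: 96-well plates. Endpoint: linear interpolation; highest concentration if not reached. GI50 = concentration required for 50% inhibition of growth.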 Activity calls are given as the source filed them. Rule as the data show it: active = GI50 up to about 1.1 µM and inactive = higher.

Tests used:
Experiment in all cases: NCI anticancer screen, dose series, 48 h
[1] = tested on: MCF7
[2] = tested on: IGROV-1
[3] = tested on: NCI-H23
[4] = tested on: DLD-1
[5] = tested on: T47D
[6] = tested on: OVCAR-4
[7] = tested on: A498
[8] = tested on: RXF 631
[9] = tested on: PC-3
[10] = tested on: SK-MEL-2
[11] = tested on: U-251
[12] = tested on: MDA-N
[13] = tested on: EKVX
[14] = tested on: HCT-15
[15] = tested on: HOP-18
[16] = tested on: XF498
[17] = tested on: SN12C
[18] = tested on: HOP-62
[19] = tested on: KM-20L2
[20] = tested on: UO-31
[21] = tested on: LOX IMVI
[22] = tested on: HOP-92
[23] = tested on: SF-295
[24] = tested on: HCC 2998
[25] = tested on: SF-268
[26] = tested on: SK-MEL-5
[27] = tested on: NCI-H460
[28] = tested on: CAKI-1
[29] = tested on: SNB-75
[30] = tested on: MDA-MB-435
[31] = tested on: SNB-78
[32] = tested on: DU-145
[33] = tested on: OVCAR-5
[34] = tested on: HL-60
[35] = tested on: SK-OV-3
[36] = tested on: Malme-3M
[37] = tested on: SR
[38] = tested on: 786-0
[39] = tested on: HCT-116
[40] = tested on: MDA-MB-231
[41] = tested on: RPMI-8226
[42] = tested on: SNB-19
[43] = tested on: TK-10
[44] = tested on: NCI/ADR-RES
[45] = tested on: LXFL 529
[46] = tested on: KM12
[47] = tested on: BT-549
[48] = tested on: ACHN
[49] = tested on: RXF 393
[50] = tested on: NCI-H522
[51] = tested on: OVCAR-3
[52] = tested on: M14
[53] = tested on: SW-620
[54] = tested on: OVCAR-8
[55] = tested on: A549
[56] = tested on: UACC-62
[57] = tested on: COLO 205
[58] = tested on: DMS-273
[59] = tested on: Hs-578T
[60] = tested on: NCI-H226
[61] = tested on: SF-539
[62] = tested on: HT-29
[63] = tested on: SK-MEL-28
[64] = tested on: DMS-114
[65] = tested on: M19-MEL
[66] = tested on: K562
[67] = tested on: CCRF-CEM
[68] = tested on: MOLT-4
[69] = tested on: UACC-257

For `O=[N+]([O-])c1cccc2nc3ccccc3c(NCCN(CCO)CCO)c12`, the GI50 [1] was 0.00206 µM (active), the GI50 [2] was 0.00578 µM (active) and the GI50 [3] was 0.00222 µM (active). The GI50 [4] was 0.0069 µM (active), the GI50 [5] was 0.00367 µM (active) and the GI50 [6] was 0.00453 µM (active). The GI50 [7] was 0.00501 µM (active), the GI50 [8] was 0.00457 µM (active) and the GI50 [9] was 0.00213 µM (active). The GI50 [10] was 0.00527 µM (active), the GI50 [11] was 0.00391 µM (active) and the GI50 [12] was 0.00143 µM (active). The GI50 [13] was 0.00731 µM (active), the GI50 [14] was 0.0108 µM and the GI50 [15] was 0.0443 µM (active). For the same molecule, the GI50 [16] was 0.00512 µM (active), the GI50 [17] was 0.00537 µM (active) and the GI50 [18] was 0.00282 µM (active). The GI50 [19] was 0.00509 µM (active), the GI50 [20] was 0.0397 µM (active) and the GI50 [21] was 0.00701 µM (active). The GI50 [22] was 0.00447 µM (active), the GI50 [23] was 0.00698 µM (active) and the GI50 [24] was 0.00235 µM (active). The GI50 [25] was 0.00423 µM (active), the GI50 [26] was 0.00192 µM (active) and the GI50 [27] was 0.000815 µM (active). The GI50 [28] was 0.0064 µM (active), the GI50 [29] was 0.00726 µM (active) and the GI50 [30] was 0.00141 µM (active). For the same molecule, the GI50 [31] was 0.0221 µM (active), the GI50 [32] was 0.00208 µM (active) and the GI50 [33] was 0.00501 µM (active). The GI50 [34] was 0.0104 µM (active), the GI50 [35] was 0.00989 µM (active) and the GI50 [36] was 0.00296 µM (active). The GI50 [37] was 0.00123 µM (active), the GI50 [38] was 0.00429 µM (active) and the GI50 [39] was 0.00114 µM (active). The GI50 [40] was 0.00268 µM (active), the GI50 [41] was 0.00246 µM (active) and the GI50 [42] was 0.00783 µM (active). The GI50 [43] was 0.00836 µM (active), the GI50 [44] was 0.128 µM (active) and the GI50 [45] was 0.0187 µM (active). For the same molecule, the GI50 [46] was 0.00498 µM (active), the GI50 [47] was 0.00308 µM (active) and the GI50 [48] was 0.00361 µM (active). For the same molecule, the GI50 [49] was 0.00121 µM (active), the GI50 [50] was 0.00116 µM (active) and the GI50 [51] was 0.00536 µM (active). The GI50 [52] was 0.00338 µM (active), the GI50 [53] was 0.000774 µM (active) and the GI50 [54] was 0.00351 µM (active). The GI50 [55] was 0.00272 µM (active), the GI50 [56] was 0.00396 µM (active) and the GI50 [57] was 0.000904 µM (active). The GI50 [58] was 0.012 µM (active), the GI50 [59] was 0.00515 µM (active) and the GI50 [60] was 0.00102 µM (active). For the same molecule, the GI50 [61] was 0.00689 µM (active) and the GI50 [62] was 0.00256 µM (active).
With `COC(=O)c1sc(C(=O)OC)c2c1CSC2` the GI50 [1] was > 100 µM (inactive), the GI50 [2] was > 100 µM (inactive) and the GI50 [3] was > 72.1 µM (inactive). For the same molecule, the GI50 [4] was > 100 µM (inactive), the GI50 [6] was > 100 µM (inactive) and the GI50 [7] was > 91 µM (inactive). The GI50 [8] was > 100 µM (inactive), the GI50 [63] was > 100 µM (inactive) and the GI50 [9] was > 100 µM (inactive). For the same molecule, the GI50 [10] was 55.8 µM (inactive), the GI50 [11] was 40.3 µM (inactive) and the GI50 [12] was > 100 µM (inactive). The GI50 [13] was > 100 µM (inactive), the GI50 [14] was greater than 91.2 µM and the GI50 [15] was > 100 µM (inactive). For the same molecule, the GI50 [16] was 34.7 µM (inactive), the GI50 [17] was > 100 µM (inactive) and the GI50 [64] was > 85.5 µM (inactive). The GI50 [18] was 47.6 µM (inactive), the GI50 [65] was > 100 µM (inactive) and the GI50 [66] was > 100 µM (inactive). The GI50 [19] was > 100 µM (inactive), the GI50 [20] was > 100 µM (inactive) and the GI50 [21] was > 94.6 µM (inactive). The GI50 [22] was 32 µM (inactive), the GI50 [23] was 51.3 µM (inactive) and the GI50 [24] was > 100 µM (inactive). The GI50 [25] was 54.1 µM (inactive), the GI50 [26] was > 100 µM (inactive) and the GI50 [27] was > 100 µM (inactive). The GI50 [28] was > 93.5 µM (inactive), the GI50 [29] was 22.5 µM (inactive) and the GI50 [30] was > 100 µM (inactive). The GI50 [31] was 49.3 µM (inactive), the GI50 [32] was > 100 µM (inactive) and the GI50 [33] was > 100 µM (inactive). The GI50 [34] was > 100 µM (inactive), the GI50 [35] was > 100 µM (inactive) and the GI50 [67] was > 100 µM (inactive). For the same molecule, the GI50 [36] was > 100 µM (inactive), the GI50 [37] was > 100 µM (inactive) and the GI50 [38] was 53.6 µM (inactive). The GI50 [39] was 97.9 µM (inactive), the GI50 [40] was > 100 µM (inactive) and the GI50 [41] was > 100 µM (inactive). For the same molecule, the GI50 [42] was 51.8 µM (inactive), the GI50 [43] was > 100 µM (inactive) and the GI50 [44] was > 100 µM (inactive). The GI50 [45] was > 100 µM (inactive), the GI50 [46] was > 100 µM (inactive) and the GI50 [47] was > 100 µM (inactive). The GI50 [48] was > 100 µM (inactive), the GI50 [68] was > 100 µM (inactive) and the GI50 [49] was 47.5 µM (inactive). The GI50 [50] was 76.2 µM (inactive), the GI50 [51] was > 100 µM (inactive) and the GI50 [52] was > 100 µM (inactive). The GI50 [53] was > 100 µM (inactive), the GI50 [54] was 79.6 µM (inactive) and the GI50 [69] was > 100 µM (inactive). The GI50 [55] was > 100 µM (inactive), the GI50 [56] was > 78.7 µM (inactive) and the GI50 [57] was > 100 µM (inactive). For the same molecule, the GI50 [58] was > 100 µM (inactive), the GI50 [59] was 97.9 µM (inactive) and the GI50 [60] was > 70.6 µM (inactive). For the same molecule, the GI50 [61] was 53.3 µM (inactive) and the GI50 [62] was > 100 µM (inactive).
